Publication PMC11304049 (RSC Advances, 2024)
Where “and” joins values, the source holds several entries; their conditions need not be identical. Equal entries are not always repeated. Where two headings read alike, the source gives them in different places.

Assays:
PfW2 [1] = settings: read-out: PfW2 IC50; reference drugs, reported earlier; cited from earlier work
Pf3D7 [2] = settings: read-out: Pf3D7 IC50; reference drugs, reported earlier; cited from earlier work
PfW2 [3] = assay: microbe, parasite or virus in culture; type: cell-based, Plasmodium falciparum; settings: read-out: PfW2 IC50
Pf3D7 [4] = assay: microbe, parasite or virus in culture; type: cell-based; settings: Plasmodium falciparum, 3D7, read-out: Pf3D7 IC50
Falcipain-2 = molecular target: T1, Falcipain-2 (Plasmodium falciparum, UniProt Q8I6U4); assay: biochemical; settings: Falcipain-2 (IC50 μM), mean of triplicate
T1 sequence (Q8I6U4 244-484): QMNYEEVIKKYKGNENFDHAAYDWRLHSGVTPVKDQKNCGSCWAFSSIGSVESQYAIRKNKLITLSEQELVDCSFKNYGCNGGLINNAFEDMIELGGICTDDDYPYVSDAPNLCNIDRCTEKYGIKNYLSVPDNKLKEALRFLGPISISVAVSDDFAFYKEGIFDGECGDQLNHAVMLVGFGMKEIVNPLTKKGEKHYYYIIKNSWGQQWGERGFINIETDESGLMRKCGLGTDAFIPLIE

[5] = test system: lung cancer A5489 cell line; assay: Cytotoxicity by MTT assay, lung cancer A5489 cell line; type: cell-based, human; settings: for Selectivity index (SI) with Pf3D7 strain, A5489: cytotoxicity IC50 / Pf3D7 IC50; for Selectivity index (SI) with PfW2 strain, A5489: cytotoxicity IC50 / PfW2 IC50
[6] = as above; type: cell-based, human; settings: human, lung cancer A5489 cell line
Vero cell = assay: Cytotoxicity by MTT assay, Vero cells; type: cell-based; settings: for Selectivity index (SI) with Pf3D7 strain, Vero cell: cytotoxicity IC50 / Pf3D7 IC50; for Selectivity index (SI) with PfW2 strain, Vero cell: cytotoxicity IC50 / PfW2 IC50
[7] = Cytotoxicity by MTT assay, Vero cells; type: cell-based; settings: African green monkey, Vero cells
Falcipain-3 = molecular target: T2, Falcipain-3 (Plasmodium falciparum, UniProt Q8IIL0); assay: biochemical
T2 sequence (Q8IIL0 243-492): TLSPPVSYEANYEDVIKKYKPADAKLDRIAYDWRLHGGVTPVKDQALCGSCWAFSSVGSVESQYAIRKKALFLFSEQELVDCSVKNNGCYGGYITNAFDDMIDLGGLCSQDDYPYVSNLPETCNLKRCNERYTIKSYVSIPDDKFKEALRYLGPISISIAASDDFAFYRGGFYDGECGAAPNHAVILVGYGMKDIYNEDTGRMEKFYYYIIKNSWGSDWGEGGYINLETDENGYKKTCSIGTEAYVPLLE

[8] = test system: early ring stage 3D7 parasite of P. falciparum; assay: Impact on parasite growth and morphology; type: cell-based, Plasmodium falciparum; settings: ring-stage parasites, 3 × IC50 concentration, smears after 24 and 48 hours

CCN(CC)CCCC(C)Nc1ccnc2cc(Cl)ccc12 (stereo not drawn) [CQ, Chloroquine]
IC50 (PfW2 [1]): 0.051 ± 0.001 µM | IC50 (Pf3D7 [2]): 0.018 ± 0.002 µM

CCc1nc(N)nc(N)c1-c1ccc(Cl)cc1 [PYR, pyrimethamine]
IC50 (PfW2 [1]): 129 ± 11.3 µM | IC50 (Pf3D7 [2]): 0.015 ± 0.0002 µM

O=C1CC2(CCN(c3cc(N4CCN(S(=O)(=O)c5ccc([N+](=O)[O-])cc5)CC4)ncn3)CC2)Oc2ccccc21 [SZ1, 1′-(6-(4-((4-Nitrophenyl)sulfonyl)piperazin-1-yl)pyrimidin-4-yl)spiro[chromane-2,4′-piperidin]-4-one]
IC50 (PfW2 [3]; Plasmodium falciparum): > 14 µM | IC50 (PfW2 [3]): > 15 µM | IC50 (Pf3D7 [4]): 14.8 ± 0.24 µM

O=C1CC2(CCN(c3cc(N4CCN(S(=O)(=O)c5ccccc5[N+](=O)[O-])CC4)ncn3)CC2)Oc2ccccc21 [SZ2, 1′-(6-(4-((2-Nitrophenyl)sulfonyl)piperazin-1-yl)pyrimidin-4-yl)spiro [chromane-2,4′-piperidin]-4-one]
IC50 (PfW2 [3]; Plasmodium falciparum): > 14 µM | IC50 (PfW2 [3]): > 15 µM | IC50 (Pf3D7 [4]): 18.1 ± 0.43 µM

O=C1CC2(CCN(c3cc(N4CCN(S(=O)(=O)c5ccc6ccccc6c5)CC4)ncn3)CC2)Oc2ccccc21 [SZ3, 1′-(6-(4-(Naphthalen-2-ylsulfonyl)piperazin-1-yl)pyrimidin-4-yl)spiro[chromane-2,4′-piperidin]-4-one]
IC50 (PfW2 [3]; Plasmodium falciparum): > 15 µM | IC50 (Pf3D7 [4]): 25.2 ± 0.35 µM

N#Cc1ccc(S(=O)(=O)N2CCN(c3cc(N4CCC5(CC4)CC(=O)c4ccccc4O5)ncn3)CC2)cc1 [SZ4, 4-((4-(6-(4-Oxospiro[chromane-2,4′-piperidin]-1′-yl)pyrimidin-4-yl)piperazin-1-yl)sulfonyl)benzonitrile]
IC50 (PfW2 [3]; Plasmodium falciparum): 14.4 ± 0.16 µM | IC50 (Pf3D7 [4]): 6.33 ± 0.29 µM

O=C1CC2(CCN(c3cc(N4CCN(S(=O)(=O)c5cccs5)CC4)ncn3)CC2)Oc2ccccc21 [SZ5, 1′-(6-(4-(Thiophen-2-ylsulfonyl)piperazin-1-yl)pyrimidin-4-yl) spiro[chromane-2,4′-piperidin]-4-one]
IC50 (PfW2 [3]; Plasmodium falciparum): 13.3 ± 0.19 µM | IC50 (Pf3D7 [4]): 7.45 ± 0.37 µM

O=C1CC2(CCN(c3cc(N4CCN(S(=O)(=O)c5cccnc5)CC4)ncn3)CC2)Oc2ccccc21 [SZ7, 1′-(6-(4-(Pyridin-3-ylsulfonyl)piperazin-1-yl)pyrimidin-4-yl)spiro[chromane-2,4′-piperidin]-4-one]
IC50 (PfW2 [3]; Plasmodium falciparum): 5.64 ± 0.18 µM | IC50 (Pf3D7 [4]): 7.97 ± 0.33 µM

O=C1CC2(CCN(c3cc(N4CCN(S(=O)(=O)c5ccccc5F)CC4)ncn3)CC2)Oc2ccccc21 [SZ8, 1′-(6-(4-((2-Fluorophenyl)sulfonyl)piperazin-1-yl)pyrimidin-4-yl)spiro[chromane-2,4′-piperidin]-4-one]
IC50 (PfW2 [3]; Plasmodium falciparum): 8.12 ± 0.37 µM | IC50 (Pf3D7 [4]): 5.61 ± 0.42 µM

O=C1CC2(CCN(c3cc(N4CCN(S(=O)(=O)c5ccc(F)cc5)CC4)ncn3)CC2)Oc2ccccc21 [SZ9, 1′-(6-(4-((4-Fluorophenyl)sulfonyl)piperazin-1-yl)pyrimidin-4-yl)spiro[chromane-2,4′-piperidin]-4-one]
IC50 (PfW2 [3]; Plasmodium falciparum): 3.89 ± 0.23 µM | IC50 (Falcipain-2): 5.4 µM and 4.9 µM | Selectivity index (SI) with Pf3D7 strain, A5489 [5]: 24.36 | Selectivity index (SI) with PfW2 strain, A5489 [5]: 20.17 | IC50 at 24 h [6]: 78.5 ± 2.76 µM | IC50 (Pf3D7 [4]): 3.22 ± 0.07 µM | Selectivity index (SI) with Pf3D7 strain, Vero cell (Vero cell): 310.55 | Selectivity index (SI) with PfW2 strain, Vero cell (Vero cell): 257.06 | IC50 at 72 h [7]: > 1000 µM | IC50 (Falcipain-3): 6.3 ± 1.2 µM | Effect on erythrocytic growth of the parasite [8]: stopped at the early trophozoite stage

O=C1CC2(CCN(c3cc(N4CCN(S(=O)(=O)c5cc(F)cc(F)c5)CC4)ncn3)CC2)Oc2ccccc21 [SZ10, 1′-(6-(4-((3,5-Difluorophenyl)sulfonyl)piperazin-1-yl)pyrimidin-4-yl) spiro [chromane-2,4′-piperidin]-4-one]
IC50 (PfW2 [3]; Plasmodium falciparum): 6.67 ± 0.16 µM | IC50 (Falcipain-2): 7.2 ± 1.8 µM | Selectivity index (SI) with Pf3D7 strain, A5489 [5]: 26.91 | Selectivity index (SI) with PfW2 strain, A5489 [5]: 18.35 | IC50 at 24 h [6]: 122 ± 3.39 µM | IC50 (Pf3D7 [4]): 4.55 ± 0.34 µM | Selectivity index (SI) with Pf3D7 strain, Vero cell (Vero cell): 219.79 | Selectivity index (SI) with PfW2 strain, Vero cell (Vero cell): 149.92 | IC50 at 72 h [7]: > 1000 µM | IC50 (Falcipain-3): 8.8 ± 1.5 µM | Effect on erythrocytic growth of the parasite [8]: stopped at the early trophozoite stage

O=C1CC2(CCN(c3cc(N4CCN(S(=O)(=O)c5ccc(F)c(F)c5)CC4)ncn3)CC2)Oc2ccccc21 [SZ11, 1′-(6-(4-((3,4-Difluorophenyl)sulfonyl)piperazin-1-yl)pyrimidin-4-yl)spiro [chromane-2,4′-piperidin]-4-one]
IC50 (PfW2 [3]; Plasmodium falciparum): 5.58 ± 0.19 µM | IC50 (Falcipain-2): 6.5 ± 1.6 µM | Selectivity index (SI) with Pf3D7 strain, A5489 [5]: 24.01 | Selectivity index (SI) with PfW2 strain, A5489 [5]: 16.87 | IC50 at 24 h [6]: 94.2 ± 2.97 µM | IC50 (Pf3D7 [4]): 3.92 ± 0.25 µM | Selectivity index (SI) with Pf3D7 strain, Vero cell (Vero cell): 255.10 | Selectivity index (SI) with PfW2 strain, Vero cell (Vero cell): 179.21 | IC50 at 72 h [7]: > 1000 µM | IC50 (Falcipain-3): 8 ± 1.4 µM | Effect on erythrocytic growth of the parasite [8]: stopped at the early trophozoite stage

Cc1noc(C)c1S(=O)(=O)N1CCN(c2cc(N3CCC4(CC3)CC(=O)c3ccccc3O4)ncn2)CC1 [SZ12, 1′-(6-(4-((3,5-Dimethylisoxazol-4-yl)sulfonyl)piperazin-1-yl)pyrimidin-4-yl) spiro[chromane-2,4′-piperidin]-4-one]
IC50 (PfW2 [3]; Plasmodium falciparum): > 15 µM | IC50 (Pf3D7 [4]): 8.46 ± 0.28 µM

O=C1CC2(CCN(c3cc(N4CCN(S(=O)(=O)N5CCOCC5)CC4)ncn3)CC2)Oc2ccccc21 [SZ13, 1′-(6-(4-(Morpholinosulfonyl)piperazin-1-yl)pyrimidin-4-yl) spiro[chromane-2,4′-piperidin]-4-one]
IC50 (PfW2 [3]; Plasmodium falciparum): > 15 µM | IC50 (Pf3D7 [4]): 22.2 ± 0.36 µM

O=C1CC2(CCN(c3cc(N4CCN(S(=O)(=O)c5cccc(C(F)(F)F)c5)CC4)ncn3)CC2)Oc2ccccc21 [SZ14, 1′-(6-(4-((3-(Trifluoromethyl)phenyl)sulfonyl)piperazin-1-yl)pyrimidin-4-yl)spiro [chromane-2,4′-piperidin]-4-one]
IC50 (PfW2 [3]; Plasmodium falciparum): 2.84 µM | IC50 (PfW2 [3]): 3.12 ± 0.14 µM | IC50 (Falcipain-2): 4.1 ± 1.1 µM | Selectivity index (SI) with Pf3D7 strain, A5489 [5]: 23.31 | Selectivity index (SI) with PfW2 strain, A5489 [5]: 21.22 | IC50 at 24 h [6]: 66.2 ± 2.14 µM | IC50 (Pf3D7 [4]): 2.84 ± 0.21 µM | Selectivity index (SI) with Pf3D7 strain, Vero cell (Vero cell): 352.11 | Selectivity index (SI) with PfW2 strain, Vero cell (Vero cell): 320.51 | IC50 at 72 h [7]: > 1000 µM | IC50 (Falcipain-3): 5.4 ± 0.7 µM | Effect on erythrocytic growth of the parasite [8]: stopped at the early trophozoite stage
